Source: patent publication US20220175761A1, “BI-LIGAND DRUG CONJUGATE AND USE THEREOF” (COHERENT BIOPHARMA (SUZHOU), LIMITED, priority 2019, published 2022)
Numbered stars: 1 amine (or outer) side, 2 acyl side, 3 side chain; on linkers, the order of the positions; unused ones are H or OH. Bridge positions count the residues as written; N and C are the ends. Square brackets hold non-standard residues; d marks the D form. Peptide text beside a SMILES is read from it. I, II: the chains in the order shown. * marks the point of attachment. ξ: configuration not given here. Exatecan = CC[C@@]1(O)C(=O)OCc2c1cc1n(c2=O)Cc2c-1nc1cc(F)c(C)c3c1c2[C@@H](N*)CC3; Hexanoyl(6-succinimido-3yl) = O=C1CC([*:1])C(=O)N1CCCCCC(=O)[*:2]; Pteroyl = Nc1nc2ncc(CNc3ccc(C(=O)*)cc3)nc2c(=O)[nH]1; γGlu = O=C(O)[C@H](CCC(=O)[*:2])N[*:1]; NHCH2OCH2CO = O=C(COCN[*:1])[*:2]; ξV = CC(C)C(N)C(=O)O

Columns and labels:
Assay in all cases: Inhibition of cell line proliferation, CCK8
Type in all cases: cell-based
[1] = test system: CFPAC-1 (human pancreatic cancer cells); conditions: CFPAC-1, 68-72 hours, CCK8
Method: Experimental operations: PANC-1 and CFPAC-1 cells were prepared in advance, counted, and plated in 96-well cell culture plates at a cell density of 4×10^4 cells/ml (100 μl/well); negative control and blank control wells were set on each plate. After adherent cell culture overnight, the diluted samples to be tested were added at 50 μl/well. The plates were placed in an incubator at 37° C., 5% CO2 and cultured for 68-72 hours. To each well, 15 μl (10% of the liquid volume in a well) of a color developing solution from CCK8 was added; and the plates were incubated at 37° C. for 45-70 minutes and each plate was read at 450 nm on a microplate reader. The data was edited using SoftMax Pro and a 4-P fitting curve was plotted.
(§1) Experimental operations: LNCaP, SK-BR-3, NCI-H226, CFPAC-1 and PANC-1 cells were prepared in advance and counted; with a culture medium (IMDM+10% FBS+1× L-Glutamine+1×P/S), the cells LNCaP, SK-BR-3 and CFPAC-1 were diluted to 4×10^4 cells/ml, NCI-H226 was diluted to 2.0×10^4 cells/ml and PANC-1 was diluted to 3.0×10^4 cells/ml; the diluted cell solution was plated in 96-well plates at 100 μl/well; and negative control and blank control wells were set on each plate. After adherent cell culture overnight, the diluted samples to be tested were added at 50 μl/well. The plates were placed in an incubator at 37° C., 5% CO2 and cultured for 68-72 hours. To each well, 15 μl (10% of the liquid volume in a well) of a color developing solution from CCK8 was added; and the plates were incubated at 37° C. for 45-70 minutes and each plate was read at 450 nm on a microplate reader. The data was edited using SoftMax Pro and a 4-P fitting curve was plotted.
(§2) Experimental Operations: LNCaP, SK-BR-3, MDA-MB-468 and CFPAC-1 cells were prepared in advance and counted; with a culture medium (IMDM+10% FBS+1× L-Glutamine+1×P/S), the cells LNCaP, SK-BR-3, MDA-MB-468 and CFPAC-1 were diluted to 4×10^4 cells/ml; the diluted cell solution was plated in 96-well plates at 100 µl/well; and negative control and blank control wells were set on each plate. After adherent cell culture overnight, the diluted samples to be tested were added at 50 μl/well. The plates were placed in an incubator at 37° C., 5% CO2 and cultured for 68-72 hours. To each well, 15 μl (10% of the liquid volume in a well) of a color developing solution from CCK8 was added; and the plates were incubated at 37° C. for 45-70 minutes and each plate was read at 450 nm on a microplate reader. The data was edited using SoftMax Pro and a 4-P fitting curve was plotted.
as §2, with “Operations: LNCaP, MDA-MB-468, CFPAC-1 and PANC-1” for “Operations: LNCaP, SK-BR-3, MDA-MB-468 and CFPAC-1”, “CFPAC-1 and PANC-1 cells were” for “MDA-MB-468 and CFPAC-1 cells were”, “cells LNCaP, MDA-MB-468 and” for “cells LNCaP, SK-BR-3, MDA-MB-468 and”, “to 4×10^4 cells/ml, and PANC-1 was diluted to 3.0×10^4 cells/ml; the” for “to 4×10^4 cells/ml; the”, “at 100 μl/well; and negative” for “at 100 µl/well; and negative”
Experimental operations: NCI-H226, CFPAC-1 and MDA-MB-468 cells were prepared in advance and counted; MDA-MB-468 and CFPAC-1 cells were plated at a density of 2×10^4 cells/ml (100 μl/well) and NCI-H226 cells were plated at a density of 1×10^4 cells/ml (100 μl/well) in 96-well plates; and negative control and blank control wells were set on each plate. After adherent cell culture overnight, the diluted samples to be tested were added at 50 μl/well. The plates were placed in an incubator at 37° C., 5% CO2 and cultured for 68-72 hours. […]

[2] = test system: MDA-MB-468 (human breast cancer cells); conditions: MDA-MB-468, 68-72 hours, CCK8
Method: as §2
as §2, with “Operations: LNCaP, MDA-MB-468, CFPAC-1 and PANC-1” for “Operations: LNCaP, SK-BR-3, MDA-MB-468 and CFPAC-1”, “CFPAC-1 and PANC-1 cells were” for “MDA-MB-468 and CFPAC-1 cells were”, “cells LNCaP, MDA-MB-468 and” for “cells LNCaP, SK-BR-3, MDA-MB-468 and”, “to 4×10^4 cells/ml, and PANC-1 was diluted to 3.0×10^4 cells/ml; the” for “to 4×10^4 cells/ml; the”, “at 100 μl/well; and negative” for “at 100 µl/well; and negative”
(§3) Experimental operations: NCI-H226, CFPAC-1 and MDA-MB-468 cells were prepared in advance and counted; MDA-MB-468 and CFPAC-1 cells were plated at a density of 2×10^4 cells/ml (100 μl/well) and NCI-H226 cells were plated at a density of 1×10^4 cells/ml (100 μl/well) in 96-well plates; and negative control and blank control wells were set on each plate. After adherent cell culture overnight, the diluted samples to be tested were added at 50 μl/well. The plates were placed in an incubator at 37° C., 5% CO2 and cultured for 68-72 hours. To each well, 15 μl (10% of the liquid volume in a well) of a color developing solution from CCK8 was added; and the plates were incubated at 37° C. for 45-70 minutes and each plate was read at 450 nm on a microplate reader. The data was edited using SoftMax Pro and a 4-P fitting curve was plotted.

[3] = test system: NCI-H226 (human lung cancer cells); conditions: NCI-H226, 68-72 hours, CCK8
Method: as §1, §3

| Compound | IC50 [1] | IC50 [2] | IC50 [3] |
| --- | --- | --- | --- |
| CCCC(=O)N[C@@H](Cc1ccccc1)C(=O)N[C@H]1CSSC[C@@H](C(=O)N[C@H](C(=O)N[C@@H](CCCCNC(=O)[C@H](CCC(=O)O)NC(=O)CCOCCOCCOCCOCCNC(=O)[C@H](CCC(=O)O)NC(=O)[C@H](CSC2CC(=O)N(CCCCCC(=O)NCC(=O)NCC(=O)N[C@@H](Cc3ccccc3)C(=O)NCC(=O)NCOCC(=O)N[C@H]3CCc4c(C)c(F)cc5nc6c(c3c45)Cn3c-6cc4c(c3=O)COC(=O)[C@]4(O)CC)C2=O)NC(=O)CC[C@H](NC(=O)c2ccc(NCc3cnc4[nH]c(N)nc(=O)c4n3)cc2)C(=O)O)C(N)=O)[C@@H](C)O)NC(=O)[C@H]([C@@H](C)O)NC(=O)[C@H](CCCCN)NC(=O)[C@H](Cc2c[nH]c3ccccc23)NC(=O)[C@H](Cc2ccc(O)cc2)NC1=O (stereo partly drawn) [CR19426] | 1660 nM | 2300 nM | 4390 nM |
| CC[C@@]1(O)C(=O)OCc2c1cc1n(c2=O)Cc2c-1nc1cc(F)c(C)c3c1c2[C@@H](NC(=O)COCNC(=O)CNC(=O)[C@H](Cc1ccccc1)NC(=O)CNC(=O)CNC(=O)CCCCCN1C(=O)CC(SC[C@H](NC(=O)CC[C@H](NC(=O)c2ccc(NCc4cnc5[nH]c(N)nc(=O)c5n4)cc2)C(=O)O)C(=O)N[C@@H](CCCCN)C(=O)N[C@@H](CCC(=O)O)C(=O)N[C@@H](Cc2ccccc2)C(=O)N[C@@H](CC(C)C)C(=O)N[C@@H](Cc2cnc[nH]2)C(=O)N2CCC[C@H]2C(=O)N[C@@H](CO)C(=O)N[C@@H](CCCCN)C(=O)NC(C(=O)N[C@@H](CC(=O)O)C(=O)N[C@@H](CC(C)C)C(=O)N2CCC[C@H]2C(=O)N[C@@H](CCCNC(=N)N)C(=O)O)C(C)C)C1=O)CC3 (stereo partly drawn) [CR19425] (I: {Pteroyl-γGlu}-CKEFLHPSK[ξV]DLPR-OH / II: GGFG[NHCH2OCH2CO]-Exatecan; linker I:1-II:N via Hexanoyl(6-succinimido-3yl)) | 621 nM | 951 nM | 1010 nM |
| CCc1c2c(nc3ccc(O)cc13)-c1cc3c(c(=O)n1C2)COC(=O)[C@]3(O)CC [SN-38, reference compound] | 5.5 nM | 13.6 nM | 17.3 nM |
